Source: US20230085307A1, “PYRIDAZINONE COMPOUND AND HERBICIDE” (NISSAN CHEMICAL CORPORATION, priority 2019, published 2023)

Assays:
velvetleaf [1] = assay: Test Example 5: herbicidal effect by foliage application, plastic box (Table 20, symbol M); assay type: in vivo, velvetleaf (Abutilon theophrasti); conditions: foliage application; for M: velvetleaf, herbicidal effect (criteria 0-5): AAH 320 g/ha, evaluated three weeks after application
Summary of the method: (§1)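 Plants sown in sterilized diluvial soil and grown 14 days in a greenhouse at 25° C to 30° C, then sprayed on the foliage with the compound's emulsion diluted in water to a predetermined herbicide amount. Injury to weeds and crops scored three weeks after application on a visual rating scale.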

persian speedwell [2] = assay: Test Example 5: herbicidal effect by foliage application, plastic box (Table 20, symbol R); assay type: in vivo, Persian speedwell (Veronica persica); conditions: foliage application; for R: persian speedwell, herbicidal effect (criteria 0-5): AAH 320 g/ha, evaluated three weeks after application
Summary of the method: as §1

chickweed [3] = assay: Test Example 4: herbicidal effect by soil treatment (Table 19, symbol P); assay type: in vivo, common chickweed (Stellaria media); conditions: for herbicidal effect on P: chickweed: amount of applied herbicide 320 g/ha
Summary of the method: (§2)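 Seeds were sown in sterilized diluvial soil and covered with about 1.5 cm of soil. An emulsion formulation diluted with water to a predetermined herbicide amount was sprayed evenly onto the soil surface. Plants grew in a greenhouse at 25° C. to 30° C., and the effect was scored three weeks after application using criteria from an earlier test.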

persian speedwell [4] = assay: Test Example 4: herbicidal effect by soil treatment (Table 19, symbol R); assay type: in vivo, Persian speedwell (Veronica persica); conditions: for herbicidal effect on R: persian speedwell: amount of applied herbicide 320 g/ha
Summary of the method: as §2

southern crabgrass [5] = assay: Test Example 4: herbicidal effect by soil treatment (Table 19, symbol F); assay type: in vivo, southern crabgrass (Digitaria ciliaris); conditions: for herbicidal effect on F: southern crabgrass: amount of applied herbicide 320 g/ha
Summary of the method: as §2

lambsquarters [6] = assay: Test Example 4: herbicidal effect by soil treatment (Table 19, symbol O); assay type: in vivo, lambsquarters (Chenopodium album); conditions: for herbicidal effect on O: lambsquarters: amount of applied herbicide 320 g/ha
Summary of the method: as §2

green foxtail = assay: Test Example 4: herbicidal effect by soil treatment (Table 19, symbol G); assay type: in vivo, green foxtail (Setaria viridis); conditions: for herbicidal effect on G: green foxtail: amount of applied herbicide 320 g/ha
Summary of the method: as §2

velvetleaf [7] = assay: Test Example 4: herbicidal effect by soil treatment (Table 19, symbol M); assay type: in vivo, velvetleaf (Abutilon theophrasti); conditions: for herbicidal effect on M: velvetleaf: amount of applied herbicide 320 g/ha
Summary of the method: as §2

southern crabgrass [8] = assay: Test Example 5: herbicidal effect by foliage application, plastic box (Table 20, symbol F); assay type: in vivo, southern crabgrass (Digitaria ciliaris); conditions: foliage application; for F: southern crabgrass, herbicidal effect (criteria 0-5): AAH 320 g/ha, evaluated three weeks after application
Summary of the method: as §1

barnyard grass = assay: Test Example 4: herbicidal effect by soil treatment (Table 19, symbol H); assay type: in vivo, barnyard grass (Echinochloa crus-galli); conditions: for herbicidal effect on H: barnyard grass: amount of applied herbicide 320 g/ha
Summary of the method: as §2

windgrass = assay: Test Example 5: herbicidal effect by foliage application, plastic box (Table 20, symbol L); assay type: in vivo, windgrass (Apera spica-venti); conditions: foliage application; for L: windgrass, herbicidal effect (criteria 0-5): AAH 320 g/ha, evaluated three weeks after application
Summary of the method: as §1

blackgrass = assay: Test Example 4: herbicidal effect by soil treatment (Table 19, symbol J); assay type: in vivo, blackgrass (Alopecurus myosuroides); conditions: for herbicidal effect on J: blackgrass: amount of applied herbicide 320 g/ha
Summary of the method: as §2

lambsquarters [9] = assay: Test Example 5: herbicidal effect by foliage application, plastic box (Table 20, symbol O); assay type: in vivo, lambsquarters (Chenopodium album); conditions: foliage application; for O: lambsquarters, herbicidal effect (criteria 0-5): AAH 320 g/ha, evaluated three weeks after application
Summary of the method: as §1

Japanese bulrush = assay: Test Example 2: herbicidal activity, application during weed generation under submerged conditions (Table 17, symbol B); assay type: in vivo, Japanese bulrush (Schoenoplectus juncoides); conditions: application during weed generation, submerged conditions
Summary of the method: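 Effect on each weed is rated three weeks post-treatment, using the same scoring criteria as the preceding test. Plants grow from mixed-sown seed in flooded alluvial soil (4 cm water) at 25° C. to 30° C., and are treated at one to two leaves with diluted emulsion dropped onto the water.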

wild oat = assay: Test Example 4: herbicidal effect by soil treatment (Table 19, symbol I); assay type: in vivo, wild oat (Avena fatua); conditions: for herbicidal effect on I: wild oat: amount of applied herbicide 320 g/ha
Summary of the method: as §2

oval-leafed pondweed = assay: Test Example 1: herbicidal activity, application before weed generation under submerged conditions (Table 16, symbol C); assay type: in vivo, oval-leafed pondweed (Monochoria vaginalis); conditions: for Herbicidal effect on C: oval-leafed pondweed (grade 0-5): 320 g/ha applied herbicide
Summary of the method: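 Emulsion formulation, water-diluted to set dose, was put onto the flooded surface (4 cm depth, alluvial soil) the same day weeds were sown and 2.5-leaf rice transplanted. After 3 weeks at 25-30 °C under glass, each species was rated 0 (≤5% kill) to 5 (≥90% kill).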

chickweed [10] = assay: Test Example 5: herbicidal effect by foliage application, plastic box (Table 20, symbol P); assay type: in vivo, common chickweed (Stellaria media); conditions: foliage application; for P: chickweed, herbicidal effect (criteria 0-5): AAH 320 g/ha, evaluated three weeks after application
Summary of the method: as §1

[11] = 274 g/ha, three weeks after application
[12] = amount of applied herbicide 274 g/ha

Compound	M: velvetleaf, herbicidal effect (criteria 0-5) (velvetleaf [1])	R: persian speedwell, herbicidal effect (criteria 0-5) (persian speedwell [2])	herbicidal effect on P: chickweed (chickweed [3])	herbicidal effect on R: persian speedwell (persian speedwell [4])	herbicidal effect on F: southern crabgrass (southern crabgrass [5])	herbicidal effect on O: lambsquarters (lambsquarters [6])	herbicidal effect on G: green foxtail (green foxtail)	herbicidal effect on M: velvetleaf (velvetleaf [7])	F: southern crabgrass, herbicidal effect (criteria 0-5) (southern crabgrass [8])	herbicidal effect on H: barnyard grass (barnyard grass)	L: windgrass, herbicidal effect (criteria 0-5) (windgrass)	herbicidal effect on J: blackgrass (blackgrass)	O: lambsquarters, herbicidal effect (criteria 0-5) (lambsquarters [9])	herbicidal effect rating, B: Japanese bulrush (Japanese bulrush; AAH 320 g/ha)	herbicidal effect on I: wild oat (wild oat)	Herbicidal effect on C: oval-leafed pondweed (grade 0-5) (oval-leafed pondweed)	P: chickweed, herbicidal effect (criteria 0-5) (chickweed [10])	also measured
CCCC(=O)Oc1c(C)nn(C)c(=O)c1-c1c(-c2ccc(F)c(F)c2)sc2ccc(F)cc12 [2-345]	5 (Herbicidal rate of 90% or more (almost completely withered))	5 (Herbicidal rate of 90% or more (almost completely withered))	3 (Herbicidal rate of 40% or more and less than 70%)	5 (Herbicidal rate of 90% or more (almost completely withered))	3 (Herbicidal rate of 40% or more and less than 70%)	4 (Herbicidal rate of 70% or more and less than 90%)	5 (Herbicidal rate of 90% or more (almost completely withered))	3 (Herbicidal rate of 40% or more and less than 70%)	4 (Herbicidal rate of 70% or more and less than 90%)	4 (Herbicidal rate of 70% or more and less than 90%)	1 (Herbicidal rate of 5% or more and less than 20%)	0 (Herbicidal rate of 5% or less (almost no effect))	5 (Herbicidal rate of 90% or more (almost completely withered))	5 (Herbicidal rate of 90% or more (almost completely withered))	1 (Herbicidal rate of 5% or more and less than 20%)	3 (Herbicidal rate of 40% or more and less than 70%)	5 (Herbicidal rate of 90% or more (almost completely withered))	
Cc1nn(C)c(=O)c(-c2c(-c3ccc(Cl)cc3F)sc3ccc(F)cc23)c1O [2-348]	5 (Herbicidal rate of 90% or more (almost completely withered))	5 (Herbicidal rate of 90% or more (almost completely withered))	3 (Herbicidal rate of 40% or more and less than 70%)	4 (Herbicidal rate of 70% or more and less than 90%)	1 (Herbicidal rate of 5% or more and less than 20%)	5 (Herbicidal rate of 90% or more (almost completely withered))	4 (Herbicidal rate of 70% or more and less than 90%)	1 (Herbicidal rate of 5% or more and less than 20%)	5 (Herbicidal rate of 90% or more (almost completely withered))	3 (Herbicidal rate of 40% or more and less than 70%)	5 (Herbicidal rate of 90% or more (almost completely withered))	0 (Herbicidal rate of 5% or less (almost no effect))	5 (Herbicidal rate of 90% or more (almost completely withered))	2 (Herbicidal rate of 20% or more and less than 40%)	0 (Herbicidal rate of 5% or less (almost no effect))	0 (Herbicidal rate of 5% or less (almost no effect))	5 (Herbicidal rate of 90% or more (almost completely withered))	
COc1ccccc1-c1sc2cc(C)ccc2c1-c1c(O)c(C)nn(C)c1=O [3-049]																		M: velvetleaf, herbicidal effect grade (velvetleaf [1]; [11]): 5 (Herbicidal rate of 90% or more (almost completely withered)); R: persian speedwell, herbicidal effect grade (persian speedwell [2]; [11]): 5 (Herbicidal rate of 90% or more (almost completely withered)); P: chickweed, herbicidal effect grade (chickweed [3]; [12]): 4 (Herbicidal rate of 70% or more and less than 90%); R: persian speedwell, herbicidal effect grade (persian speedwell [4]; [12]): 4 (Herbicidal rate of 70% or more and less than 90%); F: southern crabgrass, herbicidal effect grade (southern crabgrass [5]; [12]): 3 (Herbicidal rate of 40% or more and less than 70%); O: lambsquarters, herbicidal effect grade (lambsquarters [6]; [12]): 4 (Herbicidal rate of 70% or more and less than 90%); G: green foxtail, herbicidal effect grade (green foxtail; [12]): 3 (Herbicidal rate of 40% or more and less than 70%); M: velvetleaf, herbicidal effect grade (velvetleaf [7]; [12]): 0 (Herbicidal rate of 5% or less (almost no effect)); F: southern crabgrass, herbicidal effect grade (southern crabgrass [8]; [11]): 5 (Herbicidal rate of 90% or more (almost completely withered)); H: barnyard grass, herbicidal effect grade (barnyard grass; [12]): 3 (Herbicidal rate of 40% or more and less than 70%); L: windgrass, herbicidal effect grade (windgrass; [11]): 5 (Herbicidal rate of 90% or more (almost completely withered)); J: blackgrass, herbicidal effect grade (blackgrass; [12]): 3 (Herbicidal rate of 40% or more and less than 70%); O: lambsquarters, herbicidal effect grade (lambsquarters [9]; [11]): 4 (Herbicidal rate of 70% or more and less than 90%); herbicidal effect rating, B: Japanese bulrush (Japanese bulrush; AAH 274 g/ha): 3 (Herbicidal rate of 40% or more and less than 70%); I: wild oat, herbicidal effect grade (wild oat; [12]): 3 (Herbicidal rate of 40% or more and less than 70%); Herbicidal effect, C: oval-leafed pondweed (oval-leafed pondweed; [12]): 3 (Herbicidal rate of 40% or more and less than 70%); P: chickweed, herbicidal effect grade (chickweed [10]; [11]): 5 (Herbicidal rate of 90% or more (almost completely withered))
